This note sets out measurements from patent publication US11517550B2 (priority 2008, dated 2022).

The subject of the test is Clostridium perfringens ATCC 13124. The class given is cell-based. The note with it: brain heart infusion broth, pH 6.0, 30° C., 0% oxygen.
Consider C8 lactylate, for which the “MIC values (%)” value came to 0.05%.

Turning to C10 lactylate, the “MIC values (%)” value was determined as 0.04%.

Turning to C12 lactylate, the “MIC values (%)” value is given as 0.002%.

For the substance C14 lactylate, the “MIC values (%)” value is 0.001%.

In the case of C16 lactylate, the “MIC values (%)” value worked out at 0.002%.

In the case of C18:1 lactylate, the “MIC values (%)” value turned out to be 0.02%.
